Assay [1] deals with Mycobacterium tuberculosis. The assay is described as follows: Photodynamic antibacterial activity against multidrug resistant Mycobacterium tuberculosis assessed as reduction in bacterial burden at 10 ug/ml preincubated for 2 hrs in dark followed by light irradiation at 50 J/cm2 for 500 secs. The class given is functional.
For assay [2], the system named is Mycobacterium tuberculosis. The assay is described as follows: Photodynamic antibacterial activity against extensively drug resistant Mycobacterium tuberculosis assessed as reduction in bacterial burden at 10 ug/ml preincubated for 2 hrs in dark followed by light irradiation at 50 J/cm2 for 500 secs. Format: functional.

The structures appear in SMILES notation.

For `C=Cc1c(C)c2cc3nc(c(C=O)c4[nH]c(cc5nc(cc1[nH]2)C(C)=C5C)c(C)c4C(=O)O)[C@@H](CCC(=O)O)[C@@H]3C`, the “log(activity)” value in assay [1] was 3.1; in assay [2], 2.8.

These data come from ChEMBL document CHEMBL4346724, “Porphyrinoid photosensitizers mediated photodynamic inactivation against bacteria” (Eur J Med Chem, 2019).
